Earlier results on one molecule are cited in patent publication US20200230082A1, “TOPICAL ACETAMINOPHEN FORMULATIONS FOR ITCH RELIEF” (UNIVERSITY OF MIAMI, priority 2017, published 2020).

Like-named read-outs stand apart in the source and are kept apart here.

For the molecule `CC(=O)Nc1ccc(O)cc1` [acetaminophen], the Solubility % (solvent: Ethanol) is 37^1%, the Solubility % (solvent: PEG-400) was 18.9^3%, the Solubility % (solvent: Propylene Glycol) was 9.8^2% and the Solubility % (solvent: Water) is 1.7^1%.
